# Earlier results in PMC3725996 (Bioorganic & medicinal chemistry letters, 2010).
# Legend:
# [1] = tested on: nicotine self-administration; conditions: rats; ref [17]
# [2] = tested on: extracellular DA in rat nucleus accumbens; conditions: following acute or repeated nicotine administration, ref [16]
compound,measurement,setting,value
"Cc1ccc[n+](CCCCCCCCCCCC[n+]2cccc(C)c2)c1.[Br-].[Br-] [bPiDDB 1, N,N′-dodecane-1,12-diyl-bis-3-picolinium dibromide]",Oral bioavailability,"oral route, ref Albayati et al., unpublished data",limited bioavailability when given by the oral route
same,Brain bioavailability,"subcutaneous delivery, 14C-bPiDDB, ref [19]–[20]",brain-bioavailable after subcutaneous delivery
same,Effect on nicotine self-administration,[1],dose-dependently decreased nicotine self-administration
same,Effect on sucrose-maintained responding,[1],but not sucrose-maintained responding
same,Effect on increase in extracellular DA in nucleus accumbens,[2],dose-dependently reduced the increase in extracellular DA
